From the RepoRT retention time repository (doi:10.1021/acs.analchem.2c02893)

assay: RP, Thermo Scientific Acclaim RSLC 120 C18, 100 × 2.1 mm, 2.2 µm, 30 °C, 0.2 mL/min, estimated dead time 1.1 min; A: 90% water + 10% methanol + 0.01% formic acid + 5 mM ammonium formate, pH 3.61; B: methanol + 0.01% formic acid + 5 mM ammonium formate, pH 3.61; gradient (min/%B) 0/1 1/1 2/39 13/99.9 15/99.9 15.1/1 20.1/1; settings: stereoisomer not certain

| Compound | LC retention time [min] |
| --- | --- |
| CN(C)C(=O)OC1N=C(c2ccccc2)c2cc(Cl)ccc2N(C)C1=O (stereo not drawn) [Camazepam] | 10 |
| CC=C1CC(C)C(C)(O)C(=O)OCC2=CCN3CCC(OC1=O)C23 (stereo not drawn) [Senecionine] | 4.62 |
| CCCCOc1cc(C(=O)OCCN(CC)CC)ccc1N [Oxybuprocaine] | 5.94 |
| CCCCCn1cc(C(=O)NCc2ccccc2)c2ccccc21 [SDB-006] | 11.2 |
| Nc1ccc2c(c1)C(c1ccccc1)=NCC(=O)N2 [Nitrazepam- 7-Amino] | 4.78 |
| COP(=S)(OC)SCn1nnc2ccccc2c1=O [Azinphos-methyl (Guthion)] | 8.89 |
| CC(C1CC1)C(O)(Cn1cncn1)c1ccc(Cl)cc1 (stereo not drawn) [Cyproconazole] | 9.89 |
| CCCCCn1cc(C(=O)Cc2cccc(OC)c2)c2ccccc21 [JWH-302] | 11.6 |
| OCc1nnc2n1-c1ccc(Cl)cc1C(c1ccccc1Cl)=NC2 [Triazolam-1-Hydroxymethyl (alpha-Hydroxy-Triazolam)] | 7.65 |
| CN(CC=Cc1ccccc1)Cc1cccc2ccccc12 [Naftifine] | 8.52 |
| CCN1CCCC1CNC(=O)c1cc(S(=O)(=O)CC)c(N)cc1OC (stereo not drawn) [Amisulpride] | 3.88 |
| c1ccc(CC2=NCCN2)cc1 [Tolazoline] | 3.28 |
| C=CC=CCC1=C(C)C(OC(=O)C2C(C=C(C)C)C2(C)C)CC1=O (stereo not drawn) [Pyrethrin I] | 12.9 |
| CC(=O)Oc1ccccc1C(=O)O [Acetylsalicylic acid_NH4 adduct] | 4.8 |
| Cc1c(NC=O)c(=O)n(-c2ccccc2)n1C [Antipyrine- 4-Formylamino] | 3.96 |
| COc1nc(NC(C)C)nc(NC(C)C)n1 [Prometon] | 8.86 |
| COc1ccnc(CS(=O)c2nc3ccc(OC(F)F)cc3[nH]2)c1OC (stereo not drawn) [Pantoprazole] | 7.46 |
| CC(C(=O)c1ccc2c(c1)OCO2)N(C)C (stereo not drawn) [MDDMA-bk] | 3.78 |
| CC=CC(=O)Oc1c(C(C)CCCCCC)cc([N+](=O)[O-])cc1[N+](=O)[O-] (stereo not drawn) [Dinocap] | 13.1 |
| C#CC1(O)CCC2C3CCC4=CC(=O)CCC4C3CCC21C (stereo not drawn) [Norethisterone] | 9.15 |
| COc1ccc(CNc2nc(N3CCCC3CO)ncc2C(=O)NCc2ncccn2)cc1Cl (stereo not drawn) [Avanafil] | 8.76 |

| Compound | LC retention time [min] |
| --- | --- |
| CC(=O)NCCCS(=O)(=O)O [Acamprosat] | 1.4 |
| Cc1ccc(NC=O)c(C)c1 [N-2-4-Dimethylphenylformamide (DMF. Metabolite Amitraz)] | 6.67 |
| CNc1nc(NC(C)C)nc(SC)n1 [Desmetryn] | 8.17 |
| CC(C)(C)NCC(O)COc1cccc2c1CC(O)C(O)C2 (stereo not drawn) [Nadolol] | 4.29 |
| CCC(=O)c1ccc2c(c1)N(CCCN(C)C)c1ccccc1S2 [Promazine-Propionyl] | 8.49 |
| Cc1nnc(-c2ccccc2)c(=O)n1N [Metamitron] | 5.24 |
| O=C(c1cccc2ccccc12)c1cn(CCCCCF)c2ccccc12 [AM-2201] | 11.2 |
| CC(Cc1ccccc1)NCCC(c1ccccc1)c1ccccc1 (stereo not drawn) [Prenylamine] | 8.89 |
| CC1COCc2cc3c(cc21)C(C)(C)C(C)C3(C)C (stereo not drawn) [Galaxolide] | 13.9 |
| O=P1(NCCCl)OCCCN1CCCl (stereo not drawn) [Ifosfamid] | 5.89 |
| Fc1ccc(C2(Cn3cncn3)OC2c2ccccc2Cl)cc1 (stereo not drawn) [Epoxiconazole] | 10.3 |
| CCOC(=O)C(CCc1ccccc1)NC(C)C(=O)N1CCCC1C(=O)O (stereo not drawn) [Enalapril] | 6.83 |
| O=C1C(CCS(=O)c2ccccc2)C(=O)N(c2ccccc2)N1c1ccccc1 (stereo not drawn) [Sulfinpyrazone] | 7.94 |
| CC1(C)OC2CC3C4CCC5=CC(=O)C=CC5(C)C4(F)C(O)CC3(C)C2(C(=O)CO)O1 (stereo not drawn) [Triamcinolone acetonide] | 8.69 |
| NNCCc1ccccc1 [Phenelzine] | 3.71 |
| Cc1nnc2n1-c1ccc(Br)cc1C(c1ccccc1F)=NC2 [Flubromazolam] | 8.04 |
| CN(C)c1nc(=O)n(C2CCCCC2)c(=O)n1C [Hexazinone] | 7.09 |
| O=c1c(-c2ccc(O)cc2)coc2cc(O)cc(O)c12 [Genistein] | 7.7 |
| CCC1OC(=O)C(C)C(OC2CC(C)(OC)C(O)C(C)O2)C(C)C(OC2OC(C)CC(N(C)C)C2O)C(C)(O)CC(C)C(=NOCOCCOC)C(C)C(O)C1(C)O (stereo not drawn) [Roxithromycin] | 9.23 |
| CCOC(=O)Nc1ccc(NCc2ccc(F)cc2)nc1N [Flupirtine] | 7.09 |
| CCC(=O)OC(OP(=O)(CCCCc1ccccc1)CC(=O)N1CC(C2CCCCC2)CC1C(=O)O)C(C)C (stereo not drawn) [Fosinopril] | 12.4 |

| Compound | LC retention time [min] |
| --- | --- |
| COCCOc1ccccc1S(=O)(=O)NC(=O)Nc1nc(OC)nc(OC)n1 [Cinosulfuron] | 6.36 |
| CCOP(=S)(OCC)SCSC(C)(C)C [Terbufos] | 12.2 |
| CC(C)C(O)(C(=O)OCC1=CC[N+]2([O-])CCC(O)C12)C(C)O (stereo not drawn) [Lycopsamine-N-oxide] | 3.94 |
| CC12CCC3c4ccc(O)cc4CCC3C1CCC2O (stereo not drawn) | 12 |
| CC(CCN1CCOCC1)OC(=O)C1(c2ccccc2)CCOCC1 (stereo not drawn) [Fedrilate] | 6.12 |
| CCCC(NC(C)C(=O)N1C(C(=O)O)CC2CCCCC21)C(=O)OCC (stereo not drawn) [Perindopril] | 13.2 |
| O=C(O)c1cc(N=Nc2ccc(O)c(C(=O)O)c2)ccc1O [Olsalazine] | 5.66 |
| CC(CN1CCN(CCOCCO)CC1)CN1c2ccccc2Sc2ccccc21 (stereo not drawn) [Dixyrazine] | 9.08 |
| CCCCSP(=O)(SCCCC)SCCCC [Tribufos (Merphos oxide. DEF)] | 13.4 |
| O=C1CN=C(c2ccccc2F)c2cc(Cl)ccc2N1 [Flurazepam-Desalkyl] | 8.74 |
| NCC(O)COc1ccc(CC(N)=O)cc1 (stereo not drawn) [Atenolol-desisopropyl] | 2 |
| CCCCCCCCCCCCCCCC[N+](C)(C)Cc1ccccc1 [Benzyldimethylhexadecylammonium] | 13.1 |
| CC(=O)CCCCn1c(=O)c2c(ncn2C)n(C)c1=O [Pentoxifylline] | 5.23 |
| CNC(C)Cc1ccc2c(c1)OCO2 (stereo not drawn) [MDMA] | 4.18 |
| CCCCCCCn1cc(C(=O)c2cccc3ccccc23)c2ccccc21 [JWH-020] | 13.4 |
| CCC(CN(C)C)(CN(C)C)OC(=O)c1ccccc1 [Alypin] | 6.07 |
| CNC(C)C(=O)c1cccc(F)c1 (stereo not drawn) [Methcathinone (3-F-)] | 3.94 |
| O=S(O)(O)=S [THJ] | 13.7 |
| CC(C)(C)C(O)(CCc1ccc(Cl)cc1)Cn1cncn1 (stereo not drawn) [Tebuconazole] | 10.9 |
| CC(CN(C)C)CN1c2ccccc2Sc2ccc(C#N)cc21 (stereo not drawn) [Cyamemazine] | 7.52 |
| CNC(=O)c1cc(Cl)cc(C)c1NC(=O)c1cc(Br)nn1-c1ncccc1Cl [Chlorantraniliprole] | 8.7 |
